# Patent US4389398A, “Amino glycoside antibiotics having antiprotozoal and anthelmintic activity” (priority 1978, dated 1983)
# Where two headings read alike, the source gives them in different places.
# How the values were obtained:
# [1] = system: Trichomonas foetus; assay: Stated activity against Trichomonas foetus
# [2] = system: Histomonas meleagridis; assay: Prophylactic activity in turkeys against Histomonas meleagridis; assay type: in vivo; conditions: turkeys inoculated orally with 500 Heterakis gallinae ova
# Procedure: Gentamicin A was administered to groups of turkeys at dosage levels of 5, 10, and 15 mg. per turkey per day in aqueous solution. Two days after the initiation of the drug, the turkeys were inoculated orally with 500 Heterakis gallinae ova (the intermediate host carrier of Histomonas). A single group of turkeys received 0.035% of gentamicin A in their feed for six days. Untreated infected controls were also carried in each experiment. The test is continued for twelve days and the birds are autopsied on the thirteenth day. Infection is usually manifested principally in two areas, the cecum and the liver which are the areas examined during the autopsy.
# [3] = system: Histomonas meleagridis; assay: Stated activity against Histomonas meleagridis
# [4] = system: Syphacia obvelata; assay: Stated anthelmintic activity against pinworms such as Syphacia obvelata
# [5] = system: Entamoeba histolytica; assay: Stated activity against Entamoeba histolytica
# [6] = system: Trichomonas vaginalis; assay: Stated activity against Trichomonas vaginalis
# [7] = system: Trichomonas vaginalis; assay: In vitro activity against Trichomonas vaginalis; assay type: cell-based; conditions: for MIC / MBC: Trichomonas vaginalis; for MIC: read-out: Minimal 99% Suppression Level; for MBC: read-out: Minimal Cidal Level
# Excerpt: In Table VI below is set forth the in vitro activity of the compounds of this invention against T. vaginalis. The test procedure used was substantially as described by R. J. Schnitzer on pages 289-331 in Experimental Chemotherapy, Volume 1, Academic Press, New York (1963).
# [8] = system: bacteria; conditions: cited from earlier work
# [9] = system: Streptococcus pyogenes C; assay: Protective activity in mice, Streptococcus pyogenes C infection; assay type: in vivo; conditions: sc, subcutaneous one hour after infection, survivors at 48 hours, read-out: PD50
# Procedure: (§1) Infected non-treated controls die in about 18 to 24 hours. Generally 5-7 dose levels are administered to mice weighing about 20 grams in groups of 7-10.
# [10] = system: Staphylococcus aureus Gray; assay: Protective activity in mice, Staphylococcus aureus Gray infection; assay type: in vivo; conditions: sc, subcutaneous one hour after infection, survivors at 48 hours, read-out: PD50
# Procedure: as §1
# [11] = Acute toxicity in mice; conditions: mouse
# Procedure: The acute toxicity of gentamicin B, gentamicin B1 and gentamicin X is determined in male CF-1 (Carworth Farms) mice weighing about 20 grams each.
# [12] = system: Sarcina lutea; assay: In vitro minimal inhibitory concentration, Sarcina lutea; assay type: cell-based; conditions: pH 7.4
# Procedure: (§2) In Table III below is set forth the in vitro minimal inhibitory concentration of gentamicin B, gentamicin B1 and gentamicin X all in the free base form against a variety of gram positive and gram negative microorganisms. The experiments were carried out in a yeast beef broth medium at pH 7.4.
# [13] = system: Shigella sp. M324; assay: In vitro minimal inhibitory concentration, Shigella sp. M324; assay type: cell-based; conditions: free base; yeast beef broth medium, pH 7.4
# Procedure: as §2
# [14] = Chronic toxicity (ataxia) in cats after daily subcutaneous dosing; assay type: in vivo
# Excerpt: There appears to be a causal relationship between high doses of amino-glycoside type antibiotics given over an extended period of time and vestibular damage wherein one of the early manifestations is ataxia. […] Moreover, they may be used at such dosages for a time interval substantially beyond that normally required to eliminate infection without causing ataxia; and with minimal, if any, toxic manifestations. Thus, gentamicin B and gentamicin B1 represent a substantial improvement over antibiotics of this class (amino-glycoside) that are currently in use.
# [15] = system: Staphylococcus aureus Smith; assay: Protective activity in mice, Staphylococcus aureus Smith infection; assay type: in vivo; conditions: sc, subcutaneous one hour after infection, survivors at 48 hours, read-out: PD50
# Procedure: as §1
# [16] = system: Escherichia coli; assay: In vitro minimal inhibitory concentration, Escherichia coli; assay type: cell-based; conditions: pH 7.4
# Procedure: as §2
# [17] = system: Staphylococcus aureus; assay: In vitro minimal inhibitory concentration, Staphylococcus aureus; assay type: cell-based; conditions: pH 7.4
# Procedure: as §2
# [18] = system: Streptococcus pyogenes; assay: In vitro minimal inhibitory concentration, Streptococcus pyogenes; assay type: cell-based; conditions: pH 7.4
# Procedure: as §2
# [19] = system: Pseudomonas aeruginosa SC; assay: Protective activity in mice, Pseudomonas aeruginosa SC infection; assay type: in vivo; conditions: subcutaneous one hour after infection, survivors at 48 hours, read-out: PD50
# Procedure: as §1
# [20] = system: Pseudomonas aeruginosa; assay: In vitro minimal inhibitory concentration, Pseudomonas aeruginosa; assay type: cell-based; conditions: pH 7.4
# Procedure: as §2
# [21] = system: Klebsiella pneumoniae; assay: In vitro minimal inhibitory concentration, Klebsiella pneumoniae; assay type: cell-based; conditions: pH 7.4
# Procedure: as §2
# [22] = system: Staphylococcus aureus W; assay: Protective activity in mice, Staphylococcus aureus W infection; assay type: in vivo; conditions: sc, subcutaneous one hour after infection, survivors at 48 hours, read-out: PD50
# Procedure: as §1
# [23] = system: Aerobacter aerogenes; assay: In vitro minimal inhibitory concentration, Aerobacter aerogenes; assay type: cell-based; conditions: pH 7.4
# Procedure: as §2
# [24] = system: Salmonella paratyphi B; assay: Protective activity in mice, Salmonella paratyphi B infection; assay type: in vivo; conditions: Salmonella enterica, sc, subcutaneous one hour after infection, survivors at 48 hours, read-out: PD50
# Procedure: as §1
# [25] = system: Bacillus subtilis; assay: In vitro minimal inhibitory concentration, Bacillus subtilis; assay type: cell-based; conditions: pH 7.4
# Procedure: as §2
# [26] = system: Syphacia obvelata; assay: Anthelmintic activity in vivo against Syphacia obvelata in mice; design: species or system male Millerton mice; conditions: for anthelmintic activity (in words): male Millerton mice
# [27] = system: Entamoeba hystolytica; assay: Activity against Entamoeba hystolytica (MIC and minimal cidal concentration); assay type: cell-based; conditions: 48 hours
# [28] = system: Escherichia coli SC; assay: Protective activity in mice, Escherichia coli SC infection; assay type: in vivo; conditions: subcutaneous one hour after infection, survivors at 48 hours, read-out: PD50
# Procedure: as §1
# [29] = system: helminths; conditions: cited from earlier work
# [30] = system: protozoa; conditions: cited from earlier work
# [31] = system: Trichomonas vaginalis; conditions: at somewhat high dose ranges; cited from earlier work
# [32] = system: Entamoeba histolytica; conditions: Albach et al., Am. J. Trop. Med. Hyg. 15, 885 (1965); cited from earlier work
# [33] = free base, yeast beef broth medium, read-out: MIC
molecule,measurement,setting,value
CNC1C(O)COC(OC2C(N)CC(N)C(OC3OC(CO)C(O)C(O)C3N)C2O)C1O (stereo not shown) [Gentamicin A],antiprotozoal activity (in words),[1],effective
same,minimum dosage level with prophylactic activity,[2],10 mg. per bird
same,antiprotozoal activity (in words),[3],effective
same,anthelmintic activity (in words),[4],effective
same,antiprotozoal activity (in words),[5],effective
same,antiprotozoal activity (in words),[6],effective
same,MIC,[7]; 24 hours,10 µg/mL
same,MBC,[7]; 24 hours,25 µg/mL
same,MIC,[7]; 48 hours,5 to 10 µg/mL
same,MBC,[7]; 48 hours,10 µg/mL
same,antibiotic activity (in words),[8],rather weak antibiotic activity
CNC1C(O)C(OC2C(N)CC(N)C(OC3OC(C(C)N)C(O)C(O)C3O)C2O)OCC1(C)O (stereo not shown) [Gentamicin B1],ED50,[9],18 mg/kg
same,ED50,[10],30 mg/kg
same,LD50,"[11]; in vivo, ip",1600 mg/kg
same,LD50,"[11]; in vivo, iv",230 mg/kg
same,LD50,"[11]; in vivo, po",> 250 mg/kg
same,LD50,"[11]; in vivo, sc",> 1500 mg/kg
same,antiprotozoal activity (in words),[3],to a lesser extent
same,MIC,[12]; [33],0.3 µg/mL
same,MIC,[13],5 µg/mL
same,Average No. Days to become ataxic,[14]; 40 mg/kg/day subcutaneous,108.0 days
same,Average No. Days to become ataxic,[14]; 60 mg/kg/day subcutaneous,69.0 days
same,Average No. Days to become ataxic,[14]; 240 mg/kg/day subcutaneous,21.0 days
same,"period of administration to cause impairment of the ""righting reflex"" and ataxia (in words)",[14]; high doses,required substantially longer periods of administration at high doses
same,ataxic potential (in words),[14]; see Table VIII,low ataxic potential
same,ED50,[15],2.5 mg/kg
same,MIC,[16]; [33],0.08 to 0.3 µg/mL
same,MIC,[17]; [33],0.3 to 3 µg/mL
same,MIC,[18]; [33],3 µg/mL
same,ED50,[19],2 mg/kg
same,MIC,[20]; [33],0.08 µg/mL
same,MIC,[21]; [33],3 µg/mL
same,anthelmintic activity (in words),[4],effective
same,ED50,[22],50 mg/kg
same,antiprotozoal activity (in words),[5],to a lesser extent
same,MIC,[23]; [33],0.08 µg/mL
same,ED50,[24],4 mg/kg
same,MIC,[25]; [33],3 µg/mL
same,MIC,[7]; 24 hours,25 µg/mL
same,MBC,[7]; 24 hours,> 250 µg/mL
same,MIC,[7]; 48 hours,10 to 25 µg/mL
same,MBC,[7]; 48 hours,25 µg/mL
CNC1C(O)C(OC2C(N)CC(N)C(OC3OC(CN)C(O)C(O)C3O)C2O)OCC1(C)O (stereo not shown) [Gentamicin B],ED50,[9],15 mg/kg
same,ED50,[10],20 mg/kg
same,LD50,[11]; ip,1750 mg/kg
same,LD50,[11]; iv,228 mg/kg
same,LD50,[11]; po,> 250 mg/kg
same,LD50,[11]; sc,> 1500 mg/kg
same,antiprotozoal activity (in words),[3],to a lesser extent
same,MIC,[12],0.3 µg/mL
same,MIC,[13],5 µg/mL
same,ataxic potential (in words),[14]; in vivo,low ataxic potential
same,"period of administration to cause impairment of the ""righting reflex"" and ataxia (in words)",[14]; in vivo,required substantially longer periods of administration at high doses
same,ED50,[15],5 mg/kg
same,MIC,[16],0.03 to 0.3 µg/mL
same,MIC,[17],0.3 to 3 µg/mL
same,MIC,[18],3 µg/mL
same,ED50,[19],2 mg/kg
same,MIC,[20],0.03 to 0.08 µg/mL
same,% Infected,"[26]; 8 mg/kg/day, 0.008% in diet",67%
same,Mean Worm Burden,"[26]; 8 mg/kg/day, 0.008% in diet",29.5
same,% Infected,"[26]; 39 mg/kg/day, 0.02% in diet",0%
same,Mean Worm Burden,"[26]; 39 mg/kg/day, 0.02% in diet",0
same,% Infected,"[26]; 100 mg/kg/day, 0.0625% in diet",0%
same,Mean Worm Burden,"[26]; 100 mg/kg/day, 0.0625% in diet",0
same,% Infected,"[26]; 259 mg/kg/day, 0.25% in diet",0%
same,Mean Worm Burden,"[26]; 259 mg/kg/day, 0.25% in diet",0
same,minimal effective dose,"[26]; Syphacia obvelata, read-out: minimum dosage with anthelmintic activity",39 mg/kg/day
same,anthelmintic activity (in words),[26],exhibit anthelmintic activity
same,MIC,[21],3 µg/mL
same,anthelmintic activity (in words),[4],effective
same,ED50,[22],50 mg/kg
same,antiprotozoal activity (in words),[5],to a lesser extent
same,MIC,[23],0.08 µg/mL
same,ED50,[24],5 mg/kg
same,MIC,[25],0.8 µg/mL
same,MIC,[7]; 24 h,25 µg/mL
same,MBC,[7]; 24 h,> 250 µg/mL
same,MIC,[7]; 48 h,25 µg/mL
same,MBC,[7]; 48 h,25 µg/mL
CNC1C(O)C(OC2C(N)CC(N)C(OC3OC(CO)C(O)C(O)C3N)C2O)OCC1(C)O (stereo not shown) [Gentamicin X],antiprotozoal activity (in words),[1],effective
same,ED50,[10],4 mg/kg
same,LD50,"[11]; in vivo, ip",> 1000 mg/kg
same,LD50,"[11]; in vivo, iv",225 mg/kg
same,antiprotozoal activity (in words),[3],effective
same,MBC,[27],7 µg/mL
same,MIC,[27]; read-out: minimal inhibitory concentration,4 µg/mL
same,MIC,[16]; [33],0.3 µg/mL
same,MIC,[17]; [33],0.08 to 0.75 µg/mL
same,MIC,[18]; [33],0.3 to 0.75 µg/mL
same,ED50,[19],7 mg/kg
same,MIC,[20]; [33],0.3 to 0.75 µg/mL
same,anthelmintic effect (in words),[26]; 62 mg/kg/day,partially effective
same,% Infected,"[26]; 62 mg/kg/day, 0.05% in diet",83%
same,Mean Worm Burden,"[26]; 62 mg/kg/day, 0.05% in diet",27
same,anthelmintic effect (in words),[26]; 310 mg/kg/day,totally effective
same,% Infected,"[26]; 310 mg/kg/day, 0.25% in diet",0%
same,Mean Worm Burden,"[26]; 310 mg/kg/day, 0.25% in diet",0
same,anthelmintic activity (in words),[26],exhibit anthelmintic activity
same,MIC,[21]; [33],0.75 µg/mL
same,anthelmintic activity (in words),[4],effective
same,antiprotozoal activity (in words),[5],effective
same,antiprotozoal activity (in words),[6],effective
same,ED50,[28],1.5 mg/kg
same,MIC,[25]; [33],0.03 µg/mL
same,MIC,[7]; 48 hours,2.5 µg/mL
same,MBC,[7]; 48 hours,10 µg/mL
NC[C@@H]1O[C@H](O[C@H]2[C@@H](O)[C@H](O[C@@H]3[C@@H](O)[C@H](N)C[C@H](N)[C@H]3O[C@H]3O[C@H](CO)[C@@H](O)[C@H](O)[C@H]3N)O[C@@H]2CO)[C@H](N)[C@@H](O)[C@@H]1O [paromomycin],anthelmintic activity (in words),[29],exhibit anthelmintic activity in reasonably useful dosage ranges
same,antiprotozoal activity (in words),[30],known to exhibit antiprotozoal activity to any substantial degree
"Gentamicin C [Garamycin®, reference compound]",activity against T. vaginalis (in words),[31],only slight activity
same,activity against E. histolytica (in words),[32],relatively ineffective
same,Minimal 99% Suppression Level,[7]; 24 hours,250 µg/mL
same,Minimal Cidal Level,[7]; 24 hours,> 250 µg/mL
same,Minimal 99% Suppression Level,[7]; 48 hours,100 µg/mL
same,Minimal Cidal Level,[7]; 48 hours,100 µg/mL
